pIC50: −log10 of the molar value. “And” between values parts separate entries of the source, which are not always exact repeats. Equal values may be shown once. “Also recorded” adds a separate entry of the source. Read-outs that look alike come from different tables or passages of the source.
Assays:
Test in all cases: GloSensor cAMP assay, antagonism of PGE2-induced cAMP
Assay type in all cases: cell-based
EP4 V320A = molecular target: T1, EP4 V320A (Homo sapiens, UniProt P35408, V320A); settings: for cAMP activity (∆pIC50 from EP4 WT): TG6-129, V320A
T1 construct: The full-length EP2 or EP4 was cloned into the pcDNA3.1 vector (Invitrogen), incorporating an N-terminal FLAG tag; expressed in transfected cells; host or cells: AD293
T1 sequence (P35408 whole entry V320A): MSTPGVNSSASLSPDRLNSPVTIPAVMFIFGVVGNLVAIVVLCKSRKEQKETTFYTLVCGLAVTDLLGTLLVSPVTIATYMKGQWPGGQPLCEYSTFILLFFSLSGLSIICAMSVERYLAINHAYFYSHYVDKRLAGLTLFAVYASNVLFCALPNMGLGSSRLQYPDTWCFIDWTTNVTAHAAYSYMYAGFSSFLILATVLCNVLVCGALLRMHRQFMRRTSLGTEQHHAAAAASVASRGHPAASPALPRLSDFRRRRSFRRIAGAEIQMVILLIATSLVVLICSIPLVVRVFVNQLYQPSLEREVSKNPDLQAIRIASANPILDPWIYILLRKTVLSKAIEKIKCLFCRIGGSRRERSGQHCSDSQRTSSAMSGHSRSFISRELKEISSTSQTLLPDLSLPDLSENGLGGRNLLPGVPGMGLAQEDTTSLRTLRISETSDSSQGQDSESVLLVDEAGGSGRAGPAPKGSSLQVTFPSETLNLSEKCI
Experimental: (§1) The full-length EP2 or EP4 was cloned into the pcDNA3.1 vector (Invitrogen), incorporating an N-terminal FLAG tag. AD293 cells were seeded in six-well plates containing DMEM supplemented with 10% dialyzed FBS 1 day prior to transfection. Following overnight growth, cells were transfected with a 1:1 ratio of receptor construct and GloSensor22F cAMP biosensor (Promega) plasmids.
(§2) Twenty-four hours post-transfection, the cells were transferred to CO2-independent media containing 2% GloSensor cAMP Reagent (Promega) and distributed into 384-well assay plates at a density of 4000 cells per well in 10 μL. […] The plates were then incubated at 37 °C for an additional hour before luminescence measurements were taken using an EnVision plate reader.
(§3) Data analysis was performed using GraphPad Prism software v8.0.1. A nonlinear regression analysis, employing a sigmoidal dose–response model, was conducted to determine the Emax values and half-maximum inhibitory concentrations (IC50) for each compound tested.

EP4 V72A = molecular target: T2, EP4 V72A (Homo sapiens, UniProt P35408, V72A)
T2 construct: The full-length EP2 or EP4 was cloned into the pcDNA3.1 vector; FLAG (N); expressed in transfected cells; host or cells: AD293 cells
T2 sequence (P35408 whole entry V72A): as the sequence (P35408 whole entry V320A) above, with V72A, A320V counted along it
Experimental: as §1, §2, §3

EP4 WT = molecular target: T3, EP4 WT (Homo sapiens, UniProt P35408); settings: for remaining activity at 100 µM / remaining activity at […] / remaining activity at 0.1585 µM / remaining activity at 0.03236 µM / remaining activity at 0.006457 µM / remaining activity at 0.001288 µM: 1 h
T3 construct: The full-length EP2 or EP4 was cloned into the pcDNA3.1 vector; FLAG (N); expressed in transfected cells; host or cells: AD293 cells
T3 sequence (P35408 whole entry): as the sequence (P35408 whole entry V320A) above, with A320V counted along it
Experimental: as §1, §2, §3

EP2 WT = EP2 WT (Homo sapiens, UniProt P43116); set-up: The full-length EP2 or EP4 was cloned into the pcDNA3.1 vector; FLAG (N); expressed in transfected cells; host or cells: AD293 cells
Chain of EP2 WT (P43116 whole entry): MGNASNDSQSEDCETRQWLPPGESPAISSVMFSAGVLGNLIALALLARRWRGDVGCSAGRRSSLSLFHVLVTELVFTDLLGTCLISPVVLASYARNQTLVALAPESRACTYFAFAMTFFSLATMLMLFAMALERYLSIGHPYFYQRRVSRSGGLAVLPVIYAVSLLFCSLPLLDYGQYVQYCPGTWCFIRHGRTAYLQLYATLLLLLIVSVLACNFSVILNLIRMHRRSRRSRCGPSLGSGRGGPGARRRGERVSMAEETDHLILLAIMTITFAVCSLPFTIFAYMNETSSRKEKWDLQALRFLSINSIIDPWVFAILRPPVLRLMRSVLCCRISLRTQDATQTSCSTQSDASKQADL
Experimental: as §1, §2, §3

[1] = 1 h, TG6-129 log([M]) -7.49, read-out: % cAMP activity (normalized to WT)
[2] = 1 h, TG6-129 log([M]) -8.19, read-out: % cAMP activity (normalized to WT)
[3] = 1 h, TG6-129 log([M]) -8.89, read-out: % cAMP activity (normalized to WT)
[4] = TG6-129, WT, single experiments 1st-3rd

remaining activity at 0.03236 µM (EP4 V320A; [1]): 66.5%
remaining activity at 0.006457 µM (EP4 V320A; [2]): 70.4%
remaining activity at 0.001288 µM (EP4 V320A; [3]): 68.8%
ΔpIC50 (EP4 V320A; PGE2 0.5 nM, pIC50 mutant - pIC50 WT, mean): -0.11 ± 0.05
cAMP activity (∆pIC50 from EP4 WT) (EP4 V320A; Mean): -0.111
cAMP activity (∆pIC50 from EP4 WT) (EP4 V320A; single experiments 1st-3rd): -0.105 and -0.202 and -0.027
pIC50 (EP4 V72A): 4.74
remaining activity at 100 µM (EP4 V72A; 1 h, TG6-129 log([M]) -4.00, read-out: % cAMP activity (normalized to WT)): 12.5%
remaining activity at […] (EP4 V72A; 1 h, TG6-129 log([M]) -4.70, read-out: % cAMP activity (normalized to WT)): 22.1%
remaining activity at […] (EP4 V72A; 1 h, TG6-129 log([M]) -5.40, read-out: % cAMP activity (normalized to WT)): 49.5%
remaining activity at […] (EP4 V72A; 1 h, TG6-129 log([M]) -6.10, read-out: % cAMP activity (normalized to WT)): 51.9%
remaining activity at 0.1585 µM (EP4 V72A; 1 h, TG6-129 log([M]) -6.80, read-out: % cAMP activity (normalized to WT)): 46%
remaining activity at 0.03236 µM (EP4 V72A; [1]): 55.5%
remaining activity at 0.006457 µM (EP4 V72A; [2]): 65.3%
remaining activity at 0.001288 µM (EP4 V72A; [3]): 49%
cAMP activity (∆pIC50 from EP4 WT) (EP4 V72A; TG6-129, V72A, Mean): -0.291
remaining activity at 100 µM (EP4 WT; TG6-129 log([M]) -4.00, read-out: % cAMP activity (normalized to WT)): 15.1%
remaining activity at […] (EP4 WT; TG6-129 log([M]) -4.70, read-out: % cAMP activity (normalized to WT)): 25.9%
remaining activity at […] (EP4 WT; TG6-129 log([M]) -5.40, read-out: % cAMP activity (normalized to WT)): 86.4%
remaining activity at […] (EP4 WT; TG6-129 log([M]) -6.10, read-out: % cAMP activity (normalized to WT)): 94.7%
remaining activity at 0.1585 µM (EP4 WT; TG6-129 log([M]) -6.80, read-out: % cAMP activity (normalized to WT)): 90.5%
remaining activity at 0.03236 µM (EP4 WT; TG6-129 log([M]) -7.49, read-out: % cAMP activity (normalized to WT)): 87.9%
remaining activity at 0.006457 µM (EP4 WT; TG6-129 log([M]) -8.19, read-out: % cAMP activity (normalized to WT)): 104%
remaining activity at 0.001288 µM (EP4 WT; TG6-129 log([M]) -8.89, read-out: % cAMP activity (normalized to WT)): 109%
remaining activity at 100 µM (EP4 WT; read-out: % cAMP activity EP4 (normalized to Grapiprant), ligand log([M]) -4.00, single experiments 1st-3rd, Fig. S1A): 15.1%
remaining activity at […] (EP4 WT; read-out: % cAMP activity EP4 (normalized to Grapiprant), ligand log([M]) -4.70, single experiments 1st-3rd, Fig. S1A): 25.9%
remaining activity at […] (EP4 WT; read-out: % cAMP activity EP4 (normalized to Grapiprant), ligand log([M]) -5.40, single experiments 1st-3rd, Fig. S1A): 86.4%
remaining activity at […] (EP4 WT; read-out: % cAMP activity EP4 (normalized to Grapiprant), ligand log([M]) -6.10, single experiments 1st-3rd, Fig. S1A): 94.7%
remaining activity at 0.1585 µM (EP4 WT; read-out: % cAMP activity EP4 (normalized to Grapiprant), ligand log([M]) -6.80, single experiments 1st-3rd, Fig. S1A): 90.5%
remaining activity at 0.03236 µM (EP4 WT; read-out: % cAMP activity EP4 (normalized to Grapiprant), ligand log([M]) -7.49, single experiments 1st-3rd, Fig. S1A): 87.9%
remaining activity at 0.006457 µM (EP4 WT; read-out: % cAMP activity EP4 (normalized to Grapiprant), ligand log([M]) -8.19, single experiments 1st-3rd, Fig. S1A): 104%
remaining activity at 0.001288 µM (EP4 WT; read-out: % cAMP activity EP4 (normalized to Grapiprant), ligand log([M]) -8.89, single experiments 1st-3rd, Fig. S1A): 109%
cAMP activity (∆pIC50 from EP4 WT) (EP4 WT; [4]): 0.138 and 0.074 and -0.140
pIC50 (EP2 WT): 7.09
remaining activity at 0.1 µM (EP2 WT; 1 h, TG6-129 log([M]) -7, read-out: % cAMP activity (normalized to WT)): 40.1%
remaining activity at 0.01 µM (EP2 WT; 1 h, TG6-129 log([M]) -8, read-out: % cAMP activity (normalized to WT)): 94.7%
remaining activity at 0.001 µM (EP2 WT; 1 h, TG6-129 log([M]) -9, read-out: % cAMP activity (normalized to WT)): 104%
remaining activity at 0.0001 µM (EP2 WT; 1 h, TG6-129 log([M]) -10, read-out: % cAMP activity (normalized to WT)): 94.6%
remaining activity at 10 pM (EP2 WT; 1 h, TG6-129 log([M]) -11, read-out: % cAMP activity (normalized to WT)): 102%
remaining activity at 1 pM (EP2 WT; 1 h, TG6-129 log([M]) -12, read-out: % cAMP activity (normalized to WT)): 94.1%
remaining activity at 1 µM (EP2 WT; 1 h, ligand log([M]) -6, single experiments 1st-3rd, Fig. S7B, read-out: % cAMP activity (normalized to WT)): 3.11%
remaining activity at 0.1 µM (EP2 WT; 1 h, ligand log([M]) -7, single experiments 1st-3rd, Fig. S7B, read-out: % cAMP activity (normalized to WT)): 42.8%
remaining activity at 0.01 µM (EP2 WT; 1 h, ligand log([M]) -8, single experiments 1st-3rd, Fig. S7B, read-out: % cAMP activity (normalized to WT)): 80.3%
remaining activity at 0.001 µM (EP2 WT; 1 h, ligand log([M]) -9, single experiments 1st-3rd, Fig. S7B, read-out: % cAMP activity (normalized to WT)): 95.4%
remaining activity at 0.0001 µM (EP2 WT; 1 h, ligand log([M]) -10, single experiments 1st-3rd, Fig. S7B, read-out: % cAMP activity (normalized to WT)): 93.9%
remaining activity at 10 pM (EP2 WT; 1 h, ligand log([M]) -11, single experiments 1st-3rd, Fig. S7B, read-out: % cAMP activity (normalized to WT)): 103%
remaining activity at 1 pM (EP2 WT; 1 h, ligand log([M]) -12, single experiments 1st-3rd, Fig. S7B, read-out: % cAMP activity (normalized to WT)): 110%
remaining activity at 0.1 µM (EP2 WT; 1 h, read-out: % cAMP activity on EP2 (normalized to PF-04418948), ligand log([M]) -7, single experiments 1st-3rd, Fig. S1A): 46%
remaining activity at 0.01 µM (EP2 WT; 1 h, read-out: % cAMP activity on EP2 (normalized to PF-04418948), ligand log([M]) -8, single experiments 1st-3rd, Fig. S1A): 84.5%
remaining activity at 0.001 µM (EP2 WT; 1 h, read-out: % cAMP activity on EP2 (normalized to PF-04418948), ligand log([M]) -9, single experiments 1st-3rd, Fig. S1A): 100%
remaining activity at 0.0001 µM (EP2 WT; 1 h, read-out: % cAMP activity on EP2 (normalized to PF-04418948), ligand log([M]) -10, single experiments 1st-3rd, Fig. S1A): 98.6%
remaining activity at 10 pM (EP2 WT; 1 h, read-out: % cAMP activity on EP2 (normalized to PF-04418948), ligand log([M]) -11, single experiments 1st-3rd, Fig. S1A): 108%
remaining activity at 1 pM (EP2 WT; 1 h, read-out: % cAMP activity on EP2 (normalized to PF-04418948), ligand log([M]) -12, single experiments 1st-3rd, Fig. S1A): 115%
cAMP activity (∆pIC50 from EP2 WT) (EP2 WT; [4]): 0.065 and 0.064 and -0.014
cAMP activity (∆pIC50 from EP2 WT) (EP2 WT; single experiments 1st-3rd, Appendix Fig. S7A): 0.111 and -0.076 and -0.052
Compound: CCc1nnc(NS(=O)(=O)c2ccc(NC(=S)NC(=O)/C=C/c3ccc(F)cc3)cc2)s1 [TG6-129]
antagonism profile EP2 versus EP4 (in words) (EP2 WT; cAMP accumulation assay upon PGE2 stimulation, Appendix Fig. S1A): dual antagonist that preferentially antagonizes EP2; also recorded: preferential potency toward EP2

Reference: paper PMC12669672, “Structural insights into selective and dual antagonism of EP2 and EP4 prostaglandin receptors” (The EMBO Journal, 2025)
